Experimental data reported in US12667724B2, “Combination therapy for the treatment of depression” (Flow Neuroscience, Inc., priority 2022, dated 2026).
Entries after “also recorded” stand apart in the source; their conditions may differ.

Key:
[1] = Weekly MADRS-s self-assessment of MDD subjects on a prescribed antidepressant combined with home tDCS sessions (Example 2); format: in vivo, human; settings: for effectiveness in reducing symptoms of depression (change in MADRS-s) compared to fluoxetine: combined with tDCS, Week 6
Excerpt: In this example, a subject completed a MADRS-s questionnaire at baseline (defined as a time preceding initiation of neurostimulation) to determine a starting measurement to be used in an assessment of treatment efficacy. Ideally, baseline measures were made close to the period of time in which the first neurostimulation session began. The subject completed the same MADRS-s questionnaire weekly during a period of ongoing treatment comprising administering of a prescribed pharmacologic antidepressant agent and delivery to the subject of plurality tDCS sessions. The number of and date completed of each tDCS session was recording in order to analyze subjects according to how often they successfully completed tDCS sessions as part of their treatment regimens. Subjects were parcellated into groups of 1) depression symptoms absent, 2) mild depression, 3) moderate depression, or 4) severe depression to further enable analysis of changes in MADRS-s score according to severity of depression and adherence to the recommended tDCS session schedule. […]
Subjects were provided with a tDCS neurostimulation device, instructions of use, and an program capable of being run on a handheld electronic device which provided instructions, recorded responses to various questionnaires completed by the subject, and recorded information regarding the tDCS stimulation sessions completed by the user. Amongst the tDCS stimulation session information recorded was the date of each session completed, the time of day of each completed session, the duration of each completed session, the intensity of electrical stimulation in each session, the latency from the most recently completed session to the previous session.
Subjects completed a MADSR-s assessment at baseline prior to their first tDCS session. […] In this treatment tracking questionnaire, subjects recorded if their specific antidepressant agent or category of antidepressant had changed. […] Subjects also recorded if the dosage administered of the antidepressant medication had changed in the past month. […]

[2] = tested on: serotonin reuptake and norepinephrine reuptake; settings: cited from earlier work

Row | Compound | effectiveness in reducing symptoms of depression (change in MADRS-s) compared to fluoxetine [1] | Result of ANOVA of change in MADRS-s score ([1]; Week 6 after initiation of treatment, Fluoxetine vs. the labelled agent, each combined with tDCS, irrespective of tDCS adherence) | selectivity for serotonin reuptake inhibition than norepinephrine reuptake inhibition [2] [fold]
1 | CN[C@H]1CC[C@@H](c2ccc(Cl)c(Cl)c2)c2ccccc21 [Sertraline, sertraline] | significant difference; also recorded: significantly better |  | 
2 | COc1ccc(C(CN(C)C)C2(O)CCCCC2)cc1 (centres unmarked) [Venlafaxine, venlafaxine] | approaching significance | Approaching | 
3 | CN(C)CC(c1ccc(O)cc1)C1(O)CCCCC1 (centres unmarked) [desvenlafaxine] |  |  | 10
4 | CNCC[C@H](Oc1cccc2ccccc12)c1cccs1 [duloxetine] |  |  | 10
